According to patent US20250320496A1, “MODULATION OF ABCB11 GENE TRANSCRIPTION USING ANTISENSE OLIGONUCLEOTIDES TARGETING REGULATORY RNAS” (CAMP4 Therapeutics Corporation, priority 2022, published 2025):
Strand notation (5' to 3'): a small letter for the sugar, then the base; units joined by * are phosphorothioate-linked, units joined directly phosphodiester-linked; [ ] holds rarer units or linkages, { } end groups; capitals alone tell only the bases. e = 2'-O-(2-methoxyethyl) (MOE); l = locked nucleic acid (LNA); [5mC] = 5-methylcytosine; d = 2'-deoxy (DNA)

System: human ABCB11 mRNA
Test: ASO treatment of primary human hepatocytes (PHH), ABCB11 mRNA by RT-qPCR normalized to B2M
Type: cell-based
Details: primary human hepatocytes, 5 μM ASO, normalized to untreated PHHs (UNT)
How it was run: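 ABCB11 mRNA was quantified by Taqman RT-qPCR relative to B2M and expressed as fold over untreated cells. Cells were cryopreserved primary human hepatocytes given ASO in Matrigel-supplemented medium 4 h after plating, at 1.25, 2.5, 5 or 10 μM (5 μM for screening), and harvested after 72 hrs.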

| Substance | ABCB11 mRNA FC (5 μM ASO vs. UNT) |
| --- | --- |
| CO-7154 (antisense eA*e[5mC]*e[5mC]*eT*eT*dA*dG*eG*dA*dG*eG*dA*dT*eT*dA*dT*eT*dT*dA*eA*e[5mC]*e[5mC]*eT*e[5mC]) | 1.274 fold change |
| CO-7155 (antisense eA*e[5mC]*e[5mC]*eT*eT*dA*dG*lG*dA*dG*lG*dA*dT*lT*dA*dT*lT*dT*dA*eA*e[5mC]*e[5mC]*eT*e[5mC]) | 1.253 fold change |
| CO-7157 (antisense eG*eT*eG*eG*eA*dG*d[5mC]*dA*dA*dA*d[5mC]*dT*dA*dG*dG*e[5mC]*eA*e[5mC]*eT*eG) | 1.195 fold change |
| CO-7158 (antisense eA*eG*eG*eT*eG*eG*eA*eG*e[5mC]*eA*eA*eA*e[5mC]*eT*eA*eG*eG*e[5mC]*eA*e[5mC]) | 1.229 fold change |
| CO-7159 (antisense eG*eG*eA*eG*eG*eT*eG*eG*eA*eG*e[5mC]*eA*eA*eA*e[5mC]*eT*eA*eG*eG*e[5mC]) | 1.326 fold change |
| CO-7160 (antisense eT*eG*eT*eG*eG*eA*eG*eG*eT*eG*eG*eA*eG*e[5mC]*eA*eA*eA*e[5mC]*eT*eA) | 1.312 fold change |
| CO-7161 (antisense eG*eA*eT*eG*eT*eG*eG*eA*eG*eG*eT*eG*eG*eA*eG*e[5mC]*eA*eA*eA*e[5mC]) | 1.324 fold change |
| CO-7163 (antisense e[5mC]*eA*eG*eA*e[5mC]*eA*eT*eG*eA*eT*eG*eT*eG*eG*eA*eG*eG*eT*eG*eG) | 1.308 fold change |
| CO-7164 (antisense eA*eT*eT*e[5mC]*eT*eA*e[5mC]*eA*eG*eA*eG*eG*eG*eA*eG*e[5mC]*eA*eT*eA*eA) | 1.178 fold change |
| CO-7165 (antisense eT*eT*eA*eA*eT*eT*e[5mC]*eT*eA*e[5mC]*eA*eG*eA*eG*eG*eG*eA*eG*e[5mC]*eA) | 1.329 fold change |
| CO-7166: derivative ASO with additional chemical modifications based on parent ASO CO-4535 (antisense eG*eT*eT*eA*eT*eT*eA*eA*eT*eT*e[5mC]*eT*eA*e[5mC]*eA*eG*eA*eG*eG*eG) | 1.517 fold change |
| CO-7167 (antisense eG*eG*e[5mC]*eG*eT*eT*eA*eT*eT*eA*eA*eT*eT*e[5mC]*eT*eA*e[5mC]*eA*eG*eA) | 1.403 fold change |
| CO-7168 (antisense eT*eG*eG*e[5mC]*eG*dT*dT*dA*dT*dT*dA*dA*dT*dT*d[5mC]*eT*eA*e[5mC]*eA*eG) | 1.301 fold change |
| CO-7169 (antisense eT*eT*eA*eT*eT*eT*eG*eG*e[5mC]*eG*eT*eT*eA*eT*eT*eA*eA*eT*eT*e[5mC]) | 1.289 fold change |
| CO-7170 (antisense eT*e[5mC]*eT*eT*eA*eT*eT*eT*eG*eG*e[5mC]*eG*eT*eT*eA*eT*eT*eA*eA*eT) | 1.477 fold change |
| CO-7171 (antisense eA*eG*eT*e[5mC]*eT*eT*eA*eT*eT*eT*eG*eG*e[5mC]*eG*eT*eT*eA*eT*eT*eA) | 1.46 fold change |
| CO-7177 (antisense eG*eT*eG*eG*lA*dG*d[5mC]*dA*lA*dA*d[5mC]*dT*lA*dG*dG*e[5mC]*lA*e[5mC]*eT*eG) | 1.455 fold change |
| CO-7178: derivative ASO with additional chemical modifications based on parent ASO CO-4529 (antisense eG*eT*eG*lG*eA*lG*e[5mC]*lA*eA*lA*e[5mC]*lT*eA*lG*eG*l[5mC]*eA*l[5mC]*eT*eG) | 1.737 fold change |
| CO-7179: derivative ASO with additional chemical modifications based on parent ASO CO-4529 (antisense eG*eT*lG*eG*lA*eG*l[5mC]*eA*lA*eA*l[5mC]*eT*lA*eG*lG*e[5mC]*lA*e[5mC]*eT*eG) | 2.344 fold change |
